Source: ChEMBL document CHEMBL1201862, “PubChem BioAssay data set” (2004)
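Assay format: 96-well plates, 48-hour exposure. GI50 is the concentration that inhibits growth by half.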 The source made the active and inactive calls. No stated cut-off is given here; in the data, active = GI50 up to about 1.1 µM and inactive = higher.

Columns and labels:
Experiment in all cases: NCI tumour cell line growth inhibition, 48 h
SNB-19 = system: SNB-19
OVCAR-8 = system: OVCAR-8
IGROV-1 = system: IGROV-1
COLO 205 = system: COLO 205
SK-MEL-5 = system: SK-MEL-5
HOP-62 = system: HOP-62
SK-MEL-28 = system: SK-MEL-28
SW-620 = system: SW-620
OVCAR-3 = system: OVCAR-3
HCT-116 = system: HCT-116
HCT-15 = system: HCT-15
T47D = system: T47D
NCI-H460 = system: NCI-H460
Malme-3M = system: Malme-3M
UACC-257 = system: UACC-257
K562 = system: K562
KM12 = system: KM12
NCI-H23 = system: NCI-H23
A549 = system: A549
HOP-92 = system: HOP-92
BT-549 = system: BT-549
RPMI-8226 = system: RPMI-8226
CAKI-1 = system: CAKI-1
SK-MEL-2 = system: SK-MEL-2
EKVX = system: EKVX
U-251 = system: U-251
DU-145 = system: DU-145
MDA-MB-231 = system: MDA-MB-231
PC-3 = system: PC-3
MCF7 = system: MCF7
Hs-578T = system: Hs-578T
SF-295 = system: SF-295
HL-60 = system: HL-60
MDA-N = system: MDA-N
UACC-62 = system: UACC-62
M14 = system: M14
HT-29 = system: HT-29
MOLT-4 = system: MOLT-4
OVCAR-5 = system: OVCAR-5
NCI-H522 = system: NCI-H522
RXF 393 = system: RXF 393
UO-31 = system: UO-31
SN12C = system: SN12C
LOX IMVI = system: LOX IMVI
TK-10 = system: TK-10
NCI-H226 = system: NCI-H226
OVCAR-4 = system: OVCAR-4
MDA-MB-435 = system: MDA-MB-435
786-0 = system: 786-0
NCI/ADR-RES = system: NCI/ADR-RES
HCC 2998 = system: HCC 2998
SK-OV-3 = system: SK-OV-3
A498 = system: A498
ACHN = system: ACHN
SNB-75 = system: SNB-75
SF-268 = system: SF-268
SF-539 = system: SF-539
CCRF-CEM = system: CCRF-CEM

For C/C(=N\n1c(Cc2ccccc2)n[nH]c1=O)c1ccc([N+](=O)[O-])cc1, the GI50 (SNB-19) was > 100 µM (inactive), the GI50 (OVCAR-8) was 69.7 µM (inactive) and the GI50 (IGROV-1) was > 100 µM (inactive). The GI50 (COLO 205) was > 100 µM (inactive), the GI50 (SK-MEL-5) was > 100 µM (inactive) and the GI50 (HOP-62) was 49.2 µM (inactive). For the same molecule, the GI50 (SK-MEL-28) was > 100 µM (inactive), the GI50 (SW-620) was > 100 µM (inactive) and the GI50 (OVCAR-3) was > 100 µM (inactive). The GI50 (HCT-116) was > 100 µM (inactive), the GI50 (HCT-15) was greater than 100 µM and the GI50 (T47D) was 94 µM (inactive). The GI50 (NCI-H460) was > 100 µM (inactive), the GI50 (Malme-3M) was > 100 µM (inactive) and the GI50 (UACC-257) was > 100 µM (inactive). For the same molecule, the GI50 (K562) was > 100 µM (inactive), the GI50 (KM12) was > 100 µM (inactive) and the GI50 (NCI-H23) was > 100 µM (inactive). For the same molecule, the GI50 (A549) was > 100 µM (inactive), the GI50 (HOP-92) was 25.6 µM (inactive) and the GI50 (BT-549) was > 100 µM (inactive). For the same molecule, the GI50 (RPMI-8226) was 50.4 µM (inactive), the GI50 (CAKI-1) was 78.5 µM (inactive) and the GI50 (SK-MEL-2) was > 100 µM (inactive). The GI50 (EKVX) was 74.5 µM (inactive), the GI50 (U-251) was > 100 µM (inactive) and the GI50 (DU-145) was > 100 µM (inactive). For the same molecule, the GI50 (MDA-MB-231) was > 100 µM (inactive), the GI50 (PC-3) was > 100 µM (inactive) and the GI50 (MCF7) was 21 µM (inactive). The GI50 (Hs-578T) was 64.4 µM (inactive), the GI50 (SF-295) was 91.8 µM (inactive) and the GI50 (HL-60) was > 100 µM (inactive). For the same molecule, the GI50 (MDA-N) was > 100 µM (inactive), the GI50 (UACC-62) was > 100 µM (inactive) and the GI50 (M14) was > 100 µM (inactive). The GI50 (HT-29) was > 100 µM (inactive), the GI50 (MOLT-4) was 52.8 µM (inactive) and the GI50 (OVCAR-5) was > 100 µM (inactive). The GI50 (NCI-H522) was > 100 µM (inactive), the GI50 (RXF 393) was 16.6 µM (inactive) and the GI50 (UO-31) was > 100 µM (inactive). For the same molecule, the GI50 (SN12C) was > 100 µM (inactive), the GI50 (LOX IMVI) was > 100 µM (inactive) and the GI50 (TK-10) was > 100 µM (inactive). The GI50 (NCI-H226) was > 100 µM (inactive), the GI50 (OVCAR-4) was > 100 µM (inactive) and the GI50 (MDA-MB-435) was > 100 µM (inactive). For the same molecule, the GI50 (786-0) was > 100 µM (inactive) and the GI50 (NCI/ADR-RES) was > 100 µM (inactive).

For CCCNC(=O)N1CC(CN2CCN(c3ccccc3)CC2)O/C1=N/C(=O)Nc1ccccc1 (centres undefined), the GI50 (SNB-19) was > 100 µM (inactive), the GI50 (IGROV-1) was > 100 µM (inactive) and the GI50 (HCC 2998) was > 100 µM (inactive). For the same molecule, the GI50 (COLO 205) was 33.3 µM (inactive), the GI50 (SK-MEL-5) was 40.8 µM (inactive) and the GI50 (HOP-62) was > 100 µM (inactive). For the same molecule, the GI50 (SK-MEL-28) was > 100 µM (inactive), the GI50 (SW-620) was > 100 µM (inactive) and the GI50 (HCT-116) was > 100 µM (inactive). The GI50 (T47D) was 18.2 µM (inactive), the GI50 (SK-OV-3) was > 100 µM (inactive) and the GI50 (NCI-H460) was > 100 µM (inactive). The GI50 (Malme-3M) was 97.1 µM (inactive), the GI50 (UACC-257) was 46.8 µM (inactive) and the GI50 (K562) was > 100 µM (inactive). For the same molecule, the GI50 (KM12) was > 100 µM (inactive), the GI50 (NCI-H23) was 73.8 µM (inactive) and the GI50 (A549) was 63.4 µM (inactive). For the same molecule, the GI50 (HOP-92) was 89.3 µM (inactive), the GI50 (BT-549) was > 100 µM (inactive) and the GI50 (RPMI-8226) was > 100 µM (inactive). The GI50 (CAKI-1) was > 100 µM (inactive), the GI50 (SK-MEL-2) was 45.3 µM (inactive) and the GI50 (EKVX) was 71.8 µM (inactive). For the same molecule, the GI50 (U-251) was > 100 µM (inactive), the GI50 (DU-145) was 57.9 µM (inactive) and the GI50 (MDA-MB-231) was > 100 µM (inactive). The GI50 (PC-3) was 45.5 µM (inactive), the GI50 (MCF7) was > 100 µM (inactive) and the GI50 (Hs-578T) was > 100 µM (inactive). For the same molecule, the GI50 (SF-295) was > 100 µM (inactive), the GI50 (HL-60) was 3.83 µM (inactive) and the GI50 (MDA-N) was > 100 µM (inactive). For the same molecule, the GI50 (UACC-62) was 99.3 µM (inactive), the GI50 (M14) was 65.9 µM (inactive) and the GI50 (HT-29) was 68.7 µM (inactive). The GI50 (A498) was > 100 µM (inactive), the GI50 (MOLT-4) was > 100 µM (inactive) and the GI50 (OVCAR-5) was > 100 µM (inactive). The GI50 (NCI-H522) was 40.7 µM (inactive), the GI50 (ACHN) was > 100 µM (inactive) and the GI50 (RXF 393) was 43.3 µM (inactive). The GI50 (SNB-75) was 76.2 µM (inactive), the GI50 (UO-31) was 30.5 µM (inactive) and the GI50 (SF-268) was > 100 µM (inactive). The GI50 (SN12C) was > 100 µM (inactive), the GI50 (LOX IMVI) was 67.8 µM (inactive) and the GI50 (TK-10) was 82.4 µM (inactive). The GI50 (NCI-H226) was 2.09 µM (inactive), the GI50 (OVCAR-4) was 90.4 µM (inactive) and the GI50 (MDA-MB-435) was 84.5 µM (inactive). For the same molecule, the GI50 (786-0) was > 100 µM (inactive) and the GI50 (NCI/ADR-RES) was 50.6 µM (inactive).

For Cc1nc2c(O)nc3ccccc3c2o1, the GI50 (SNB-19) was > 100 µM (inactive), the GI50 (OVCAR-8) was > 100 µM (inactive) and the GI50 (IGROV-1) was 32 µM (inactive). For the same molecule, the GI50 (HCC 2998) was > 100 µM (inactive), the GI50 (COLO 205) was > 100 µM (inactive) and the GI50 (SK-MEL-5) was > 100 µM (inactive). The GI50 (HOP-62) was > 100 µM (inactive), the GI50 (SK-MEL-28) was > 100 µM (inactive) and the GI50 (SW-620) was > 100 µM (inactive). For the same molecule, the GI50 (OVCAR-3) was > 100 µM (inactive), the GI50 (HCT-116) was > 100 µM (inactive) and the GI50 (HCT-15) was greater than 100 µM. The GI50 (T47D) was > 100 µM (inactive), the GI50 (SK-OV-3) was > 100 µM (inactive) and the GI50 (SF-539) was > 100 µM (inactive). The GI50 (NCI-H460) was > 100 µM (inactive), the GI50 (Malme-3M) was > 100 µM (inactive) and the GI50 (UACC-257) was > 100 µM (inactive). For the same molecule, the GI50 (KM12) was > 100 µM (inactive), the GI50 (CCRF-CEM) was > 100 µM (inactive) and the GI50 (NCI-H23) was > 100 µM (inactive). For the same molecule, the GI50 (A549) was > 100 µM (inactive), the GI50 (HOP-92) was > 100 µM (inactive) and the GI50 (BT-549) was > 100 µM (inactive). For the same molecule, the GI50 (RPMI-8226) was > 100 µM (inactive), the GI50 (CAKI-1) was > 100 µM (inactive) and the GI50 (SK-MEL-2) was > 100 µM (inactive). The GI50 (EKVX) was 48.9 µM (inactive), the GI50 (U-251) was > 100 µM (inactive) and the GI50 (DU-145) was > 100 µM (inactive). For the same molecule, the GI50 (MDA-MB-231) was > 100 µM (inactive), the GI50 (PC-3) was > 100 µM (inactive) and the GI50 (MCF7) was > 100 µM (inactive). The GI50 (Hs-578T) was > 100 µM (inactive), the GI50 (SF-295) was > 100 µM (inactive) and the GI50 (HL-60) was > 100 µM (inactive). For the same molecule, the GI50 (MDA-N) was > 100 µM (inactive), the GI50 (UACC-62) was > 100 µM (inactive) and the GI50 (M14) was > 100 µM (inactive). The GI50 (HT-29) was > 100 µM (inactive), the GI50 (A498) was > 100 µM (inactive) and the GI50 (MOLT-4) was > 10 µM (inactive). For the same molecule, the GI50 (OVCAR-5) was > 100 µM (inactive), the GI50 (ACHN) was > 100 µM (inactive) and the GI50 (RXF 393) was > 100 µM (inactive). The GI50 (SNB-75) was > 100 µM (inactive), the GI50 (UO-31) was > 100 µM (inactive) and the GI50 (SF-268) was > 100 µM (inactive). The GI50 (SN12C) was > 100 µM (inactive), the GI50 (LOX IMVI) was > 100 µM (inactive) and the GI50 (TK-10) was > 100 µM (inactive). For the same molecule, the GI50 (NCI-H226) was > 100 µM (inactive), the GI50 (OVCAR-4) was > 100 µM (inactive) and the GI50 (MDA-MB-435) was > 100 µM (inactive). The GI50 (786-0) was > 100 µM (inactive) and the GI50 (NCI/ADR-RES) was > 100 µM (inactive).
